Legend:
15-PGDH in A549 cells = target: T1, 15-PGDH in A549 cells (Homo sapiens, UniProt P15428); experiment: A549 cellular 15-PGDH assay (PGE2 accumulation, HTRF); format: cell-based; conditions: interleukin-stimulated, inhibitor 24 hrs, PGE2 by competitive HTRF, read-out: A549 Cell Assay IC50
T1 construct: endogenous in cells; host or cells: A549
T1 sequence (P15428 1-266): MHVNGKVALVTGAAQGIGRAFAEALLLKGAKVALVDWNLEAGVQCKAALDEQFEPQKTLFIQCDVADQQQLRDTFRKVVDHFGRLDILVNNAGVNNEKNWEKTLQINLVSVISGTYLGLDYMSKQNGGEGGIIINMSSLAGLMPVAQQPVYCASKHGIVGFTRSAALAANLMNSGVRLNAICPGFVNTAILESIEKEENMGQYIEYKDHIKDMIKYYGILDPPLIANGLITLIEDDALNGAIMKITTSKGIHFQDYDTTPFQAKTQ
Outline: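 Supernatant PGE2 was quantified by competitive HTRF, in which sample PGE2 blocks FRET between a europium cryptate-labelled antibody and labelled PGE2. It came from A549 epithelial cells induced with IL-13. IC50s were calculated from the inversely proportional signal.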

[1] = target: T2, human recombinant 15-PGDH (Homo sapiens, UniProt P15428); experiment: Recombinant 15-PGDH enzymatic inhibition assay (PGDH-Lumi, NADH signal); format: biochemical; conditions: recombinant 15-PGDH; 15 min pre-incubation, 60 min reaction with PGE2 and NAD+, NADH signal
T2 sequence (P15428 1-266): T1 sequence (P15428 1-266)
Outline: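 Buffer 50 mM Tris pH 7.5 with 0.01% Tween-20 and […]; compound, 22 two-fold dilutions, pre-incubated with enzyme 15 min before substrate.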

| SMILES | IC50 (15-PGDH in A549 cells) [nM] | IC50 [1] [nM] |
| --- | --- | --- |
| Cc1c2ccc(-c3cnc4nn(C)cc4c3)nc2sc1[C@]1(O)C[C@@H](C(F)F)C1 [Compound C83C, cis-3-(difluoromethyl)-1-(3-methyl-6-(2-methyl-2H-pyrazolo[3,4-b]pyridin-5-yl)thieno[2,3-b]pyridin-2-yl)cyclobutanol] | 12.3 | 5.33 |
| Cn1cc2cc(-c3ccc4sc([C@]5(O)C[C@@H](C(F)F)C5)cc4n3)cnc2n1 [Compound C84C, cis-3-(difluoromethyl)-1-(5-(2-methyl-2H-pyrazolo[3,4-b]pyridin-5-y1)thieno[3,2-b]pyridin-2-yl)cyclobutanol] | 13.2 | 7.79 |
| Cn1nnc2cc(-c3ncc4cc([C@]5(O)C[C@@H](C(F)F)C5)sc4n3)cnc21 [Compound C85C, cis-3-(difluoromethyl)-1-(2-(3-methyl-3H-[1,2,3]triazolo[4,5-b]pyridin-6-yl)thieno[2,3-d]pyrimidin-6-yl)cyclobutanol] | 7.6 | 2.89 |
| Cn1cc2cc(-c3ccc4sc([C@]5(O)C[C@@H](C(F)(F)F)C5)cc4n3)cnc2n1 [Compound C86C, cis-1-(5-(2-methyl-2H-pyrazolo[3,4-b]pyridin-5-yl)thieno[3,2-b]pyridin-2-yl)-3-(trifluoromethyl)cyclobutanol] | 4.12 | 1.52 |
| CCn1cc2cc(-c3ccc4cc([C@]5(O)C[C@@H](C(F)F)C5)sc4n3)cnc2n1 [Compound C87C, cis-3-(difluoromethyl)-1-(6-(2-ethyl-2H-pyrazolo[3,4-b]pyridin-5-yl)thieno[2,3-b]pyridin-2-yl)cyclobutanol] | 0.842 | 0.61 |
| Cn1cc2cc(-c3ncc4sc([C@]5(O)C[C@@H](C(F)F)C5)cc4n3)cnc2n1 [Compound C89C, cis-3-(difluoromethyl)-1-(2-(2-methyl-2H-pyrazolo[3,4-b]pyridin-5-yl)thieno[3,2-d]pyrimidin-6-yl)cyclobutanol] | 49.1 | 33.8 |
| Cc1c2cnc(-c3cnc4nn(C)cc4c3)nc2sc1[C@]1(O)C[C@@H](C(F)F)C1 [Compound C90C, cis-3-(difluoromethyl)-1-(5-methyl-2-(2-methyl-2H-pyrazolo[3,4-b]pyridin-5-yl)thieno[2,3-d]pyrimidin-6-yl)cyclobutanol] | 33 | 14.4 |

Second part, the compound after the results:

| IC50 (15-PGDH in A549 cells) [nM] | IC50 [1] [nM] | SMILES |
| --- | --- | --- |
| 5.27 | 1.46 | Cc1cn2ncc(-c3ccc4cc([C@]5(O)C[C@@H](C(F)F)C5)sc4n3)cc2n1 [Compound C92C, cis-3-(difluoromethyl)-1-(6-(2-methylimidazo[1,2-b]pyridazin-7-yl)thieno[2,3-b]pyridin-2-yl)cyclobutanol] |
| 1.96 | 0.587 | Cc1nc2cc(-c3ccc4cc([C@]5(O)C[C@@H](C(F)F)C5)sc4n3)cnc2[nH]1 [Compound C93C, cis-3-(difluoromethyl)-1-(6-(2-methyl-3H-imidazo[4,5-b]pyridin-6-yl)thieno[2,3-b]pyridin-2-yl)cyclobutanol] |
| 1.45 | 2 | CO[C@H]1C[C@](O)(c2cc3cnc(-c4cnc5nn(C)cc5c4)nc3s2)C1 [Compound C94C, cis-3-methoxy-1-(2-(2-methyl-2H-pyrazolo[3,4-b]pyridin-5-yl)thieno[2,3-d]pyrimidin-6-yl)cyclobutanol] |
| 9.76 | 1.26 | Cn1nnc2cc(-c3ncc4cc([C@]5(O)C[C@@H](C(F)(F)F)C5)sc4n3)cnc21 [Compound C95C, cis-1-(2-(3-methyl-3H-[1,2,3]triazolo[4,5-b]pyridin-6-yl)thieno[2,3-d]pyrimidin-6-yl)-3-(trifluoromethyl)cyclobutanol] |
| 1.46 | 0.333 | Cc1cn2cc(-c3ccc4cc([C@]5(O)C[C@@H](C(F)F)C5)sc4n3)cnc2n1 [Compound C97C, cis-3-(difluoromethyl)-1-(6-(2-methylimidazo[1,2-a]pyrimidin-6-yl)thieno[2,3-b]pyridin-2-yl)cyclobutanol] |
